# Measurements published in patent US20240366598A1, “GLUCOSE-DEPENDENT INSULINOTROPIC POLYPEPTIDE RECEPTOR ANTAGONISTS AND USES THEREOF” (Pfizer Inc., priority 2023, published 2024).
# Target: T1, human Glucose-dependent Insulinotropic Polypeptide Receptor (hGIPR) (Homo sapiens, UniProt P48546)
# T1 sequence (P48546 22-466): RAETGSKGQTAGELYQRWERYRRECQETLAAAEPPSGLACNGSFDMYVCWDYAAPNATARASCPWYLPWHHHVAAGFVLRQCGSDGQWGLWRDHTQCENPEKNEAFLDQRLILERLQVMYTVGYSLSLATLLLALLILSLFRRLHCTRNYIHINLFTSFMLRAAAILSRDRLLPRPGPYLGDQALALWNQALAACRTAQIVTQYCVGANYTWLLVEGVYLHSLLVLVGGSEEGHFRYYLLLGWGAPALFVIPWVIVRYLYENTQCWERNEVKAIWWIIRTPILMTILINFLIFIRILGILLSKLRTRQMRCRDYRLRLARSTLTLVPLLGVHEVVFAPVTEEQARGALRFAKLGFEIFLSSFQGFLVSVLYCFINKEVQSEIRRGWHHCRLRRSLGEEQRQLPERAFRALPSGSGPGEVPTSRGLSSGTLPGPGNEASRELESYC
# Assay: Functional in vitro GIPR antagonist potency assay (cAMP HTRF, CHO-K1 cells stably expressing hGIPR, hGIP stimulation at about EC80)
# Assay type: cell-based
# Conditions: geometric mean, hGIP at estimated EC80, examples marked ^2: overall geometric mean of multiple forms (including salts) tested
# In short: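 HTRF quantification of cAMP after stimulation with hGIP at an estimated EC80 for 30 min at 37 °C. Before stimulation, hGIPR-expressing CHO-K1 cells were exposed 2 h to test compound in IBMX-containing buffer, with 0.5% DMSO final. Percent effect is referenced to agonist alone (0%) and to 80 μM of a reference antagonist (100%), and runs required the agonist concentration to fall within the on-the-day EC50–EC90.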
row,SMILES,IC50 [nM]
1,"O=C(O)c1ccc(-c2ccc(NC(=O)[C@H]3CCCN3C(=O)Nc3ccc(C(F)(F)F)c(Cl)c3)cc2)cn1 [Example 55, 5-{4-[(1-{[3-chloro-4-(trifluoromethyl)phenyl]carbamoyl}-D-prolyl)amino]phenyl}pyridine-2-carboxylic acid]",7.6
2,"O=C(O)c1ccc(-c2ccc(NC(=O)[C@H]3CCCN3C(=O)Nc3cc(Cl)cc(Cl)c3)cc2)cc1 [Example 59, 4′-({1-[(3,5-dichlorophenyl)carbamoyl]-D-prolyl}amino)[1,1′-biphenyl]-4-carboxylic acid]",35
3,"Cc1cc(C(=O)O)ccc1-c1ccc(NC(=O)[C@H]2CCCN2C(=O)Nc2ccc(C(C)C)cc2)cn1 [Example 60, 3-methyl-4-{5-[(1-{[4-(propan-2-yl)phenyl]carbamoyl}-D-prolyl)amino]pyridin-2-yl}benzoic acid]",21
4,"CC(C)c1ccc(NC(=O)N2CCC[C@@H]2C(=O)Nc2ccc(-c3ccc(C(=O)O)cc3)cc2)nc1 [Example 61, 4′-[(1-{[5-(propan-2-yl)pyridin-2-yl]carbamoyl}-D-prolyl)amino][1,1′-biphenyl]-4-carboxylic acid]",150
5,"CC(C)c1ccc(NC(=O)N2CCC[C@@H]2C(=O)Nc2ccc(-c3ccc(C(=O)O)cc3)cc2)cn1 [Example 62, 4′-[(1-{[6-(propan-2-yl)pyridin-3-yl]carbamoyl}-D-prolyl)amino][1,1′-biphenyl]-4-carboxylic acid]",110
6,"O=C(O)c1ccc(-c2ccc(NC(=O)[C@H]3CCCN3C(=O)Nc3ccc(Br)cc3)cc2)cc1 [Example 63, 4′-({1-[(4-bromophenyl)carbamoyl]-D-prolyl}amino)[1,1′-biphenyl]-4-carboxylic acid]",6.2
7,"CC(C)c1ccc(NC(=O)N2CCC[C@@H]2C(=O)Nc2ccc(-c3ccc(C(=O)O)cc3)cc2)cc1F [Example 64, 4′-[(1-{[3-fluoro-4-(propan-2-yl)phenyl]carbamoyl}-D-prolyl)amino][1,1′-biphenyl]-4-carboxylic acid]",2.9
8,"CC(C)c1ccc(NC(=O)N2CCC[C@@H]2C(=O)Nc2ccc(-c3ccc(C(=O)O)nc3)cc2F)cc1 [Example 65, 5-{3-fluoro-4-[(1-{[4-(propan-2-yl)phenyl]carbamoyl}-D-prolyl)amino]phenyl}pyridine-2-carboxylic acid]",13
9,"CC(C)c1ccc(NC(=O)N2CCC[C@@H]2C(=O)Nc2ccc(-c3ccc(C(=O)O)cc3C(C)C)cc2)cc1 [Example 71, 2-(propan-2-yl)-4′-[(1-{[4-(propan-2-yl)phenyl]carbamoyl}-D-prolyl)amino][1,1′-biphenyl]-4-carboxylic acid]",2.5
10,"O=C(O)c1ccc(-c2ccc(NC(=O)[C@H]3CCCN3C(=O)Nc3ccc(C(F)(F)F)nc3)cc2)cc1 [Example 72, 4′-[(1-{[6-(trifluoromethyl)pyridin-3-yl]carbamoyl}-D-prolyl)amino][1,1′-biphenyl]-4-carboxylic acid]",69
11,"O=C(O)c1ccc(-c2ccc(NC(=O)[C@H]3CCCN3C(=O)Nc3ccc(Cl)c(Cl)c3)cc2)cc1 [Example 73, 4′-({1-[(3,4-dichlorophenyl)carbamoyl]-D-prolyl}amino)[1,1′-biphenyl]-4-carboxylic acid]",12
12,"O=C(O)c1ccc(-c2ccc(NC(=O)[C@H]3CCCN3C(=O)Nc3cccc(Cl)c3)cc2)cc1 [Example 74, 4′-({1-[(3-chlorophenyl)carbamoyl]-D-prolyl}amino)[1,1′-biphenyl]-4-carboxylic acid]",82
13,"CC(C)c1ccc(NC(=O)N2CCC[C@@H]2C(=O)Nc2ccc(-c3cccc(C(=O)O)n3)c(F)c2)cc1 [Example 75, 6-{2-fluoro-4-[(1-{[4-(propan-2-yl)phenyl]carbamoyl}-D-prolyl)amino]phenyl}pyridine-2-carboxylic acid]",140
14,"CC(C)c1ccc(NC(=O)N2CCC[C@@H]2C(=O)Nc2ccc(-c3cccc(C(=O)O)c3)cn2)cc1 [Example 77, 3-{6-[(1-{[4-(propan-2-yl)phenyl]carbamoyl}-D-prolyl)amino]pyridin-3-yl}benzoic acid]",16
15,"CC(C)c1ccc(NC(=O)N2CCC[C@@H]2C(=O)Nc2ccc(-c3cccc(C(=O)O)c3)nc2)cc1 [Example 78, 3-{5-[(1-{[4-(propan-2-yl)phenyl]carbamoyl}-D-prolyl)amino]pyridin-2-yl}benzoic acid]",145

# The next lines start with the values.
row,IC50 [nM],SMILES
1,140,"CC(C)c1ccc(NC(=O)N2CCC[C@@H]2C(=O)Nc2ccc(-c3ccc(O)c(F)c3)cc2)cc1 [Example 54, (2R)-N^2-(3′-fluoro-4′-hydroxy[1,1′-biphenyl]-4-yl)-N^1-[4-(propan-2-yl)phenyl]pyrrolidine-1,2-dicarboxamide]"
2,6.3,"CC(C)c1ccc(NC(=O)N2CCC[C@@H]2C(=O)Nc2ccc(-c3ccc(C(=O)O)cc3F)cc2)cc1 [Example 56, 2-fluoro-4′-[(1-{[4-(propan-2-yl)phenyl]carbamoyl}-D-prolyl)amino][1,1′-biphenyl]-4-carboxylic acid]"
3,65,"Cc1cc(C(=O)O)ncc1-c1ccc(NC(=O)[C@H]2CCCN2C(=O)Nc2ccc(C(C)C)cc2)cc1 [Example 57, 4-methyl-5-{4-[(1-{[4-(propan-2-yl)phenyl]carbamoyl}-D-prolyl)amino]phenyl}pyridine-2-carboxylic acid]"
4,50,"Cc1cc(-c2ccc(NC(=O)[C@H]3CCCN3C(=O)Nc3ccc(C(C)C)cc3)cc2)cnc1C(=O)O [Example 58, 3-methyl-5-{4-[(1-{[4-(propan-2-yl)phenyl]carbamoyl}-D-prolyl)amino]phenyl}pyridine-2-carboxylic acid]"
5,390,"CC(C)c1ccc(NC(=O)N2CCC[C@@H]2C(=O)Nc2ccc(-c3cccc(O)c3F)cc2)cc1 [Example 66, (2R)-N^2-(2′-fluoro-3′-hydroxy[1,1′-biphenyl]-4-yl)-N^1-[4-(propan-2-yl)phenyl]pyrrolidine-1,2-dicarboxamide]"
6,14,"Cc1cc(C(=O)O)cc(C)c1-c1ccc(NC(=O)[C@H]2CCCN2C(=O)Nc2ccc(C(C)C)cc2)cc1 [Example 67, 2,6-dimethyl-4′-[(1-{[4-(propan-2-yl)phenyl]carbamoyl}-D-prolyl)amino][1,1′-biphenyl]-4-carboxylic acid]"
7,38,"CC(C)c1ccc(NC(=O)N2CCC[C@@H]2C(=O)Nc2ccc(-c3ccc(C(=O)O)c(C(F)(F)F)c3)cc2)cc1 [Example 68, 4′-[(1-{[4-(propan-2-yl)phenyl]carbamoyl}-D-prolyl)amino]-3-(trifluoromethyl)[1,1′-biphenyl]-4-carboxylic acid]"
8,47,"Cc1cc(-c2ccc(NC(=O)[C@H]3CCCN3C(=O)Nc3ccc(C(C)C)cc3)cc2)cc(F)c1C(=O)O [Example 69, 3-fluoro-5-methyl-4′-[(1-{[4-(propan-2-yl)phenyl]carbamoyl}-D-prolyl)amino][1,1′-biphenyl]-4-carboxylic acid]"
9,49,"CC(C)c1ccc(NC(=O)N2CCC[C@@H]2C(=O)Nc2ccc(-c3cc(F)c(C(=O)O)cc3Cl)cc2)cc1 [Example 70, 2-chloro-5-fluoro-4′-[(1-{[4-(propan-2-yl)phenyl]carbamoyl}-D-prolyl)amino][1,1′-biphenyl]-4-carboxylic acid]"
10,9.9,"Cc1cc(NC(=O)[C@H]2CCCN2C(=O)Nc2ccc(C(C)C)cc2)ccc1-c1ccc(C(=O)O)cc1 [Example 76, 2′-methyl-4′-[(1-{[4-(propan-2-yl)phenyl]carbamoyl}-D-prolyl)amino][1,1′-biphenyl]-4-carboxylic acid]"
11,15,"CC(C)c1ccc(NC(=O)N2CCC[C@@H]2C(=O)Nc2ccc(-c3ccc(C(=O)O)cc3Cl)cc2)cc1 [Example 79, 2-chloro-4′-[(1-{[4-(propan-2-yl)phenyl]carbamoyl}-D-prolyl)amino][1,1′-biphenyl]-4-carboxylic acid]"
12,400,"CC(C)c1ccc(NC(=O)N2CCC[C@@H]2C(=O)Nc2ccc(-c3c(F)ccc(C(=O)O)c3F)cc2)cc1 [Example 80, 2,6-difluoro-4′-[(1-{[4-(propan-2-yl)phenyl]carbamoyl}-D-prolyl)amino][1,1′-biphenyl]-3-carboxylic acid]"
13,210,"COc1cc(C(=O)O)c(F)cc1-c1ccc(NC(=O)[C@H]2CCCN2C(=O)Nc2ccc(C(C)C)cc2)cc1 [Example 81, 5-fluoro-2-methoxy-4′-[(1-{[4-(propan-2-yl)phenyl]carbamoyl}-D-prolyl)amino][1,1′-biphenyl]-4-carboxylic acid]"
14,27,"CC(C)c1ccc(NC(=O)N2CCC[C@@H]2C(=O)Nc2ccc(-c3cc(F)c(C(=O)O)cc3F)cc2)cc1 [Example 82, 2,5-difluoro-4′-[(1-{[4-(propan-2-yl)phenyl]carbamoyl}-D-prolyl)amino][1,1′-biphenyl]-4-carboxylic acid]"
15,230,"CC(C)c1ccc(NC(=O)N2CCC[C@@H]2C(=O)Nc2ccc(-c3cc(F)c(C(=O)O)c(Cl)c3)cc2)cc1 [Example 83, 3-chloro-5-fluoro-4′-[(1-{[4-(propan-2-yl)phenyl]carbamoyl}-D-prolyl)amino][1,1′-biphenyl]-4-carboxylic acid]"
16,19,"Cc1cc(C(=O)O)c(F)cc1-c1ccc(NC(=O)[C@H]2CCCN2C(=O)Nc2ccc(C(C)C)cc2)cc1 [Example 84, 5-fluoro-2-methyl-4′-[(1-{[4-(propan-2-yl)phenyl]carbamoyl}-D-prolyl)amino][1,1′-biphenyl]-4-carboxylic acid]"
